Experiments:
Experiment in all cases: relative viability (nuclei count vs DMSO), 5 days (fraction); higher = more cells survive
Omipalisib + Dasatinib = compound: COc1ncc(-c2ccc3nccc(-c4ccnnc4)c3c2)cc1NS(=O)(=O)c1ccc(F)cc1F [Omipalisib] + Cc1nc(Nc2ncc(C(=O)Nc3c(C)cccc3Cl)s2)cc(N2CCN(CCO)CC2)n1 [Dasatinib] (partner 0.075 µM)
Summary of the method: (§1)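 Lung cancer cell lines in 1536-well plates got either a single drug or a fixed anchor-drug dose together with five library-drug doses (not always all listed) in √10 steps, by pin tool, on the day after seeding. Nuclei were counted after 5 days, and relative viability is the treated-to-vehicle ratio of nuclei counts. Values are medians of duplicate plates.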

Omipalisib + Trametinib = compound: COc1ncc(-c2ccc3nccc(-c4ccnnc4)c3c2)cc1NS(=O)(=O)c1ccc(F)cc1F [Omipalisib] + CC(=O)Nc1cccc(-n2c(=O)n(C3CC3)c(=O)c3c(Nc4ccc(I)cc4F)n(C)c(=O)c(C)c32)c1 [Trametinib] (partner 0.02 µM)
Summary of the method: as §1

Omipalisib + Palbociclib = compound: COc1ncc(-c2ccc3nccc(-c4ccnnc4)c3c2)cc1NS(=O)(=O)c1ccc(F)cc1F [Omipalisib] + CC(=O)c1c(C)c2cnc(Nc3ccc(N4CCNCC4)cn3)nc2n(C2CCCC2)c1=O [Palbociclib] (partner 0.5 µM)
Summary of the method: as §1

Omipalisib + Pictilisib = compound: COc1ncc(-c2ccc3nccc(-c4ccnnc4)c3c2)cc1NS(=O)(=O)c1ccc(F)cc1F [Omipalisib] + CS(=O)(=O)N1CCN(Cc2cc3nc(-c4cccc5[nH]ncc45)nc(N4CCOCC4)c3s2)CC1 [Pictilisib] (partner 1 µM)
Summary of the method: as §1

Omipalisib + Alpelisib = compound: COc1ncc(-c2ccc3nccc(-c4ccnnc4)c3c2)cc1NS(=O)(=O)c1ccc(F)cc1F [Omipalisib] + Cc1nc(NC(=O)N2CCC[C@H]2C(N)=O)sc1-c1ccnc(C(C)(C)C(F)(F)F)c1 [Alpelisib] (partner 2 µM)
Summary of the method: as §1

Omipalisib + Lapatinib = compound: COc1ncc(-c2ccc3nccc(-c4ccnnc4)c3c2)cc1NS(=O)(=O)c1ccc(F)cc1F [Omipalisib] + CS(=O)(=O)CCNCc1ccc(-c2ccc3ncnc(Nc4ccc(OCc5cccc(F)c5)c(Cl)c4)c3c2)o1 [Lapatinib] (partner 2 µM)
Summary of the method: as §1

Row | Cell Line | relative viability (Omipalisib + Dasatinib; first compound 0.0003 µM) | relative viability (Omipalisib + Dasatinib; first compound 0.003 µM) | relative viability (Omipalisib + Dasatinib; first compound 0.03 µM) | relative viability (Omipalisib + Trametinib; first compound 0.0003 µM) | relative viability (Omipalisib + Trametinib; first compound 0.003 µM) | relative viability (Omipalisib + Trametinib; first compound 0.03 µM) | relative viability (Omipalisib + Palbociclib; first compound 0.0003 µM) | relative viability (Omipalisib + Palbociclib; first compound 0.003 µM) | relative viability (Omipalisib + Palbociclib; first compound 0.03 µM) | relative viability (Omipalisib + Pictilisib; first compound 0.0003 µM) | relative viability (Omipalisib + Pictilisib; first compound 0.003 µM) | relative viability (Omipalisib + Pictilisib; first compound 0.03 µM) | relative viability (Omipalisib + Alpelisib; first compound 0.0003 µM) | relative viability (Omipalisib + Alpelisib; first compound 0.003 µM) | relative viability (Omipalisib + Alpelisib; first compound 0.03 µM) | relative viability (Omipalisib + Lapatinib; first compound 0.0003 µM) | relative viability (Omipalisib + Lapatinib; first compound 0.003 µM) | relative viability (Omipalisib + Lapatinib; first compound 0.03 µM)
1 | SW 900 | 0.568 | 0.293 | 0.211 | 0.625 | 0.915 | 0.396 | 0.522 | 0.444 | 0.278 | – | – | – | – | – | – | – | – | –
2 | COR-L23 | 0.487 | 0.323 | 0.239 | 0.496 | 0.342 | 0.249 | 0.286 | 0.246 | 0.212 | 0.723 | 0.709 | 0.449 | 0.879 | 0.801 | 0.431 | 1.01 | 0.893 | 0.517
3 | NCI-H1915 | 0.278 | 0.257 | 0.275 | 0.273 | 0.192 | 0.201 | 0.509 | 0.483 | 0.446 | 1.03 | 0.866 | 0.862 | 0.994 | 1.07 | 1.03 | 0.957 | 0.945 | 1
4 | NCI-H1437 | 0.411 | 0.323 | 0.202 | 0.583 | 0.31 | 0.209 | 0.363 | 0.307 | 0.218 | 0.436 | 0.308 | 0.319 | 0.92 | 0.707 | 0.45 | 0.795 | 0.55 | 0.308
5 | CAL-12T | 0.53 | 0.241 | 0.0952 | 0.299 | 0.205 | 0.173 | 0.533 | 0.415 | 0.142 | 0.579 | 0.524 | 0.385 | 0.989 | 0.95 | 0.774 | 0.787 | 0.496 | 0.475
6 | NCI-H1651 | 0.342 | 0.297 | 0.272 | 0.712 | 0.711 | 0.535 | 0.464 | 0.401 | 0.294 | 0.545 | 0.512 | 0.458 | 0.915 | 0.847 | 0.69 | 0.538 | 0.65 | 0.44
7 | NCI-H1792 | 0.566 | 0.521 | 0.21 | 0.42 | 0.169 | 0.116 | 0.636 | 0.424 | 0.27 | 0.281 | 0.278 | 0.129 | 0.664 | 0.6 | 0.236 | 0.864 | 0.88 | 0.301
8 | COR-L 105 | 0.301 | 0.287 | 0.186 | 0.469 | 0.423 | 0.414 | 0.406 | 0.432 | 0.415 | 0.349 | 0.356 | 0.299 | 0.944 | 0.837 | 0.601 | 0.37 | 0.334 | 0.313
9 | NCI-H596 | 0.618 | 0.44 | 0.295 | 0.899 | 0.494 | 0.299 | – | – | – | 0.43 | 0.386 | 0.412 | 0.491 | 0.363 | 0.395 | 0.972 | 0.833 | 0.421
